ChEMBL document CHEMBL5260810, “Inhibition of bromodomain-containing protein 9 for the prevention of epigenetically-defined drug resistance” (Bioorg Med Chem Lett, 2017)
The source made the active and inactive calls.

Legend:
[1] = test system: PC-9; experiment: Cytotoxicity against human PC-9 cells assessed as growth inhibition at 2 uM supplemented with fresh medium containing compound every 3 days for 9 days by Beckman Coulter counting method; assay type: functional, cell-based; settings: time 9.0 day
[2] = test system: MDA-MB-361; experiment: Cytotoxicity against human MDA-MB-361 cells measured after 3 days; assay type: functional, cell-based; settings: MDA-MB-361, 72 h
[3] = Cytotoxicity against human NCE-G 22 cells measured after 3 days; assay type: functional, cell-based; settings: NCE-G 22, 72 h
[4] = Lipophilicity, log D of the compound at pH 7.4; assay type: physicochemical; settings: buffer
[5] = test system: Raji; experiment: Cytotoxicity against human Raji cells measured after 3 days; assay type: functional, cell-based; settings: 72 h
[6] = test system: G-402; experiment: Cytotoxicity against human G-402 cells measured after 3 days; assay type: functional, cell-based; settings: G-402, 72 h
[7] = Cytotoxicity against human VP267 cells measured after 3 days; assay type: functional, cell-based; settings: VP267, 72 h
[8] = test system: NCI-H1734; experiment: Cytotoxicity against human NCI-H1734 cells measured after 3 days; assay type: functional, cell-based; settings: NCI-H1734, 72 h
[9] = Cytotoxicity against human LUDLU-1 cells measured after 3 days; assay type: functional, cell-based; settings: LUDLU-1, 72 h
[10] = test system: RPMI-8226; experiment: Cytotoxicity against human RPMI-8226 cells measured after 3 days; assay type: functional, cell-based; settings: RPMI-8226, 72 h
[11] = test system: OVCAR-3; experiment: Cytotoxicity against human OVCAR-3 cells measured after 3 days; assay type: functional, cell-based; settings: OVCAR-3, 72 h
[12] = test system: JJN-3; experiment: Cytotoxicity against human JJN-3 cells measured after 3 days; assay type: functional, cell-based; settings: JJN-3, 72 h
[13] = Cytotoxicity against human MT-3 cells measured after 3 days; assay type: functional, cell-based; settings: MT-3, 72 h
[14] = Cytotoxicity against human Sc-1 cells measured after 3 days; assay type: functional, cell-based; settings: SC-1, 72 h
[15] = Cytotoxicity against human Hs 38.T cells measured after 3 days; assay type: functional, cell-based; settings: 72 h
[16] = Cytotoxicity against human KPL-4 cells measured after 3 days; assay type: functional, cell-based; settings: KPL4, 72 h
[17] = Cytotoxicity against human Li-7 cells measured after 3 days; assay type: functional, cell-based; settings: Li-7, 72 h
[18] = test system: WSUDLCL2; experiment: Cytotoxicity against human WSUDLCL2 cells measured after 3 days; assay type: functional, cell-based; settings: WSUDLCL2, 72 h
[19] = test system: OPM-2; experiment: Cytotoxicity against human OPM-2 cells measured after 3 days; assay type: functional, cell-based; settings: OPM-2, 72 h
[20] = Cytotoxicity against human HCC1623 cells measured after 3 days; assay type: functional, cell-based; settings: HCC1623, 72 h
[21] = test system: RMG-I; experiment: Cytotoxicity against human RMG-I cells measured after 3 days; assay type: functional, cell-based; settings: 72 h
[22] = test system: RL; experiment: Cytotoxicity against human RL cells measured after 3 days; assay type: functional, cell-based; settings: 72 h
[23] = test system: NCI-H460; experiment: Cytotoxicity against human NCI-H460 cells measured after 3 days; assay type: functional, cell-based; settings: NCI-H460, 72 h
[24] = test system: MDA-MB-453; experiment: Cytotoxicity against human MDA-MB-453 cells measured after 3 days; assay type: functional, cell-based; settings: MDA-MB-453, 72 h
[25] = test system: HCC95; experiment: Cytotoxicity against human HCC95 cells measured after 3 days; assay type: functional, cell-based; settings: HCC95, 72 h
[26] = test system: HCC2935; experiment: Cytotoxicity against human HCC2935 cells after 8 days; assay type: functional, cell-based; settings: HCC2935, 192 h
[27] = Cytotoxicity against human NCE-G 84 cells measured after 3 days; assay type: functional, cell-based; settings: NCE-G 84, 72 h
[28] = test system: CAMA-1; experiment: Cytotoxicity against human CAMA-1 cells measured after 3 days; assay type: functional, cell-based; settings: CAMA-1, 72 h
[29] = Cytotoxicity against human RMUG-S cells measured after 3 days; assay type: functional, cell-based; settings: 72 h
[30] = test system: HuCCT-1; experiment: Cytotoxicity against human HuCCT-1 cells measured after 3 days; assay type: functional, cell-based; settings: HuCCT-1, 72 h
[31] = test system: ACHN; experiment: Cytotoxicity against human ACHN cells measured after 3 days; assay type: functional, cell-based; settings: 72 h
[32] = test system: NCI-H2170; experiment: Cytotoxicity against human NCI-H2170 cells measured after 3 days; assay type: functional, cell-based; settings: NCI-H2170, 72 h
[33] = test system: MC116; experiment: Cytotoxicity against human MC116 cells measured after 3 days; assay type: functional, cell-based; settings: MC116, 72 h
[34] = Cytotoxicity against human HLF cells measured after 3 days; assay type: functional, cell-based; settings: 72 h
[35] = test system: HCC1954; experiment: Antiproliferative activity against human HCC1954 cells assessed as reduction in colony formation at 1 uM supplemented with fresh medium containing compound every 3 days by MTT staining based assay; assay type: functional, cell-based; settings: time 9.0 day
[36] = test system: OCI-AML-5; experiment: Cytotoxicity against human OCI-AML5 cells measured after 3 days; assay type: functional, cell-based; settings: OCI-AML-5, 72 h
[37] = test system: L-363; experiment: Cytotoxicity against human L-363 cells measured after 3 days; assay type: functional, cell-based; settings: L-363, 72 h
[38] = test system: MHH-PREB-1; experiment: Cytotoxicity against human MHH-PREB-1 cells measured after 3 days; assay type: functional, cell-based; settings: MHH-PREB-1, 72 h
[39] = Cytotoxicity against human HNT-34 cells measured after 3 days; assay type: functional, cell-based; settings: HNT-34, 72 h
[40] = Cytotoxicity against human KMM-1 cells measured after 3 days; assay type: functional, cell-based; settings: KMM-1, 72 h
[41] = biological target: T1, Bromodomain-containing protein 9 (Homo sapiens) (UniProt Q9H8M2); experiment: Inhibition of BRD9 in human PC-9 cells assessed as reduction in ALDH1A1 gene expression at 5 uM preincubated with erlotinib for 8 days followed by compound addition and measured after 24 hrs by RNA sequencing analysis; assay type: cell-based
T1 sequence (whole entry): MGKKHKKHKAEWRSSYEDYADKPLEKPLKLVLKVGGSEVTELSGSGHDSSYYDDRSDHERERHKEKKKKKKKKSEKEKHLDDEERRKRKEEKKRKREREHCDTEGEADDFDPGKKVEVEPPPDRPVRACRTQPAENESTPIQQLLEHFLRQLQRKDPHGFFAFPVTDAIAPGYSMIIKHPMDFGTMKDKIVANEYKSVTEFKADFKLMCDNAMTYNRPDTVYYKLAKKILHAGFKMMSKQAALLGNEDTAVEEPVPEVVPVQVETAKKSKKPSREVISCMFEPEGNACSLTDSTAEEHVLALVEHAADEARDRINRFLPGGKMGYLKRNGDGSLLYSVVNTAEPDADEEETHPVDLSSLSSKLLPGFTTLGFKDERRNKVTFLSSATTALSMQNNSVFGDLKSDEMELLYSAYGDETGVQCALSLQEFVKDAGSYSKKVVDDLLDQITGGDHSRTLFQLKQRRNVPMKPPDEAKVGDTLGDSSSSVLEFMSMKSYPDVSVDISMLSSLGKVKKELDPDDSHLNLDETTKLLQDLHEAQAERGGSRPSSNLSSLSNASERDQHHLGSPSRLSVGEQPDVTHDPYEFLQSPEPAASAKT

[42] = test system: THP-1; experiment: Cytotoxicity against human THP-1 cells measured after 8 days; assay type: functional, cell-based; settings: THP-1, 192 h
[43] = test system: Kasumi 1; experiment: Cytotoxicity against human Kasumi 1 cells measured after 8 days; assay type: functional, cell-based; settings: Kasumi 1, 192 h
[44] = test system: Toledo; experiment: Cytotoxicity against human Toledo cells measured after 8 days; assay type: functional, cell-based; settings: 192 h
[45] = test system: HMV-2 cell line; experiment: Antiproliferative activity against human HMV-2 cell line assessed as reduction in colony formation up to 20 uM supplemented with fresh medium containing compound every 3 days for 9 days by MTT staining based clonogenic assay; assay type: functional; settings: time 9.0 day
[46] = test system: PC-9; experiment: Antiproliferative activity against human PC-9 cells assessed as reduction in colony formation upto 20 uM supplemented with fresh medium containing compound every 3 days for 9 days by MTT staining based clonogenic assay; assay type: functional, cell-based; settings: time 9.0 day

C/C=C/Cn1cc(-c2cc(OC)c(C(=O)N3CCOCC3)cc2OC)c2cc(C)[nH]c2c1=O
5 µM: IC50 [2] | IC50 [3] | IC50 [5] | IC50 [6] | IC50 [7] | IC50 [8] | IC50 [9] | IC50 [10] | IC50 [11] | IC50 [12] | IC50 [13] | IC50 [14] | IC50 [15] | IC50 [16] | IC50 [17] | IC50 [18] | IC50 [19] | IC50 [20] | IC50 [21] | IC50 [22] | IC50 [23] | IC50 [24] | IC50 [25] | IC50 [27] | IC50 [28] | IC50 [29] | IC50 [30] | IC50 [31] | IC50 [32] | IC50 [33] | IC50 [34] | IC50 [36] | IC50 [37] | IC50 [38] | IC50 [39] | IC50 [40]
inactive: Activity [1] | Activity [35]
2 µM: IC50 [26]
2.4: logD [4]

C/C=C/Cn1cc(-c2ccc(C(C)(C)O)cc2OC)c2cc[nH]c2c1=O
3.63 µM: IC50 [43]
inactive: Activity [45]
active: inhibition [41] | Activity [46]
20 µM: IC50 [44]
16.2 µM: IC50 [42]
